Literature values as cited in patent publication US20060177860A1, “Genetic markers in the HLA-DQBI gene associated with an adverse hematological response to drugs” (priority 2005, published 2006).

Conditions: as taught by U.S. Pat. No. 5,312,819

## O=C1O[C@H]([C@@H](O)CO)C(O)=C1O [L-ascorbic acid]
  effect of radical scavenger on formation of free radicals of clozapine: reduces the formation of free radicals of clozapine
